Assay results published in ChEMBL document CHEMBL3596196, “In vitro evaluation and in silico screening of synthetic acetylcholinesterase inhibitors bearing functionalized piperidine pharmacophores” (Bioorg Med Chem, 2015).

Target: Acetylcholinesterase (Homo sapiens, UniProt P22303)
Assay: Inhibition of human acetylcholinesterase using ATCI/DTNB as substrate preincubated for 30 mins followed by substrate addition measured for 60 mins by Ellman method
Settings: not given; call rule not given here

Chain of Acetylcholinesterase (P22303 whole entry): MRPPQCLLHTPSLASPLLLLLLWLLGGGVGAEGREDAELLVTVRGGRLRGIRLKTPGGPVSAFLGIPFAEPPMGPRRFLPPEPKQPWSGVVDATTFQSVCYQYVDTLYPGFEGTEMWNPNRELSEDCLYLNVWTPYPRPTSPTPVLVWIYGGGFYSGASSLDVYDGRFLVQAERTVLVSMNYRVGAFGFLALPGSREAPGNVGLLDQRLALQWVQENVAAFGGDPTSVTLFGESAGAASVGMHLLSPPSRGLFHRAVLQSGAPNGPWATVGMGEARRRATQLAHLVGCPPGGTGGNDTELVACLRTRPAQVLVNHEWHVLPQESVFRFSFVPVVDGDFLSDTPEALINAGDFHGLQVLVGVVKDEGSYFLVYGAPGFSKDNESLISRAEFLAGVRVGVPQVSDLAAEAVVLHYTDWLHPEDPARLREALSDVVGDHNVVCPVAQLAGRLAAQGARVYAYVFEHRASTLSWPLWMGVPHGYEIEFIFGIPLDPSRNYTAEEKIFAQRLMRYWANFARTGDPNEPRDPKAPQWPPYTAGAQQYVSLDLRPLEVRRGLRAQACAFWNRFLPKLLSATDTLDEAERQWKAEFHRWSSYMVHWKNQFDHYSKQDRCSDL

Structure (SMILES) | IC50
COC(=O)C1=C(Nc2ccccc2)C[C@@H](c2ccccc2[N+](=O)[O-])N(c2ccccc2)[C@@H]1c1ccccc1[N+](=O)[O-] | Not Active

Same assay, conditions: read-out: IC50

Structure (SMILES) | IC50 [µM]
COC(=O)C1=C(Nc2ccccc2)C[C@@H](c2ccc3c(c2)OCO3)N(c2ccccc2)[C@@H]1c1ccc2c(c1)OCO2 | 3270

Same assay, conditions: read-out: pIC50 (converted)

Structure (SMILES) | IC50 [µM]
CCOC(=O)C1=C(Nc2ccccc2)C[C@@H](c2ccccc2)N(c2ccccc2)[C@@H]1c1ccccc1 | 2.95
COC(=O)C1=C(Nc2ccccc2)C[C@@H](c2ccccc2)N(c2ccccc2)[C@@H]1c1ccccc1 | 6.52
COC(=O)C1=C(Nc2ccccc2)C[C@@H](c2ccc(C)cc2)N(c2ccccc2)[C@@H]1c1ccc(C)cc1 | 5.73
CCOC(=O)C1=C(Nc2ccccc2)C[C@@H](c2ccc(C)cc2)N(c2ccccc2)[C@@H]1c1ccc(C)cc1 | 5.58
COC(=O)C1=C(Nc2ccc(C)cc2)C[C@@H](c2ccc(C)cc2)N(c2ccc(C)cc2)[C@@H]1c1ccc(C)cc1 | 6.78
COC(=O)C1=C(Nc2ccc(Br)cc2)C[C@@H](c2ccc(C)cc2)N(c2ccc(Br)cc2)[C@@H]1c1ccc(C)cc1 | 2.48
COC(=O)C1=C(Nc2ccc(Cl)cc2)C[C@@H](c2ccc(C)cc2)N(c2ccc(Cl)cc2)[C@@H]1c1ccc(C)cc1 | 2.15
COC(=O)C1=C(Nc2ccc(OC)cc2)C[C@@H](c2ccc(C)cc2)N(c2ccc(OC)cc2)[C@@H]1c1ccc(C)cc1 | 5.83
CCOC(=O)C1=C(Nc2ccc(OC)cc2)C[C@@H](c2ccc(C)cc2)N(c2ccc(OC)cc2)[C@@H]1c1ccc(C)cc1 | 4.98
CCOC(=O)C1=C(Nc2ccc(OC)cc2)C[C@@H](c2ccccc2)N(c2ccc(OC)cc2)[C@@H]1c1ccccc1 | 2.25
CCOC(=O)C1=C(Nc2ccc(Cl)cc2)C[C@@H](c2ccccc2)N(c2ccc(Cl)cc2)[C@@H]1c1ccccc1 | 4.6
CCOC(=O)C1=C(Nc2ccc(C)cc2)C[C@@H](c2ccccc2)N(c2ccc(C)cc2)[C@@H]1c1ccccc1 | 5.18
COC(=O)C1=C(Nc2ccc(F)cc2)C[C@@H](c2ccccc2)N(c2ccc(F)cc2)[C@@H]1c1ccccc1 | 15.1
CCOC(=O)C1=C(Nc2ccc(F)cc2)C[C@@H](c2ccc(Cl)cc2)N(c2ccc(F)cc2)[C@@H]1c1ccc(Cl)cc1 | 0.55
CCOC(=O)C1=C(Nc2ccccc2)C[C@@H](c2ccc(F)cc2)N(c2ccccc2)[C@@H]1c1ccc(F)cc1 | 0.39
COC(=O)C1=C(Nc2ccc(F)cc2)C[C@@H](c2ccc(F)cc2)N(c2ccc(F)cc2)[C@@H]1c1ccc(F)cc1 | 3.2
COC(=O)C1=C(Nc2ccc(Cl)cc2)C[C@@H](c2ccc(F)cc2)N(c2ccc(Cl)cc2)[C@@H]1c1ccc(F)cc1 | 0.71
CC(C)(C)OC(=O)C1=C(Nc2ccccc2)C[C@@H](c2ccccc2)N(c2ccccc2)[C@@H]1c1ccccc1 | 2.79
COC(=O)C1=C(Nc2ccccc2)C[C@@H](c2ccc(Cl)cc2)N(c2ccccc2)[C@@H]1c1ccc(Cl)cc1 | 0.879
CCOC(=O)C1=C(Nc2ccc(C)cc2)C[C@@H](c2ccc(Cl)cc2)N(c2ccc(C)cc2)[C@@H]1c1ccc(Cl)cc1 | 5.4
COC(=O)C1=C(Nc2ccc(Br)cc2)C[C@@H](c2ccc(Cl)cc2)N(c2ccc(Br)cc2)[C@@H]1c1ccc(Cl)cc1 | 0.879
COC(=O)C1=C(Nc2ccc(Br)cc2)C[C@@H](c2ccc(OC)cc2)N(c2ccc(Br)cc2)[C@@H]1c1ccc(OC)cc1 | 2.16
CCOC(=O)C1=C(Nc2ccc(Cl)cc2)C[C@@H](c2ccc(OC)cc2)N(c2ccc(Cl)cc2)[C@@H]1c1ccc(OC)cc1 | 0.38
COC(=O)C1=C(Nc2ccccc2)C[C@@H](c2ccc3c(c2)OCO3)N(c2ccccc2)[C@@H]1c1ccc2c(c1)OCO2 | 0.511
